From patent publication US3933782A, “(N-Acetyl)-Pro-D-Phe-Trp-Ser-Tyr-D-Ala-Leu-Arg-Pro-NHEt and intermediates” (American Home Products Corporation, priority 1974, dated 1976)
Where a SMILES comes first, the peptide text is derived from it. [ ]: non-standard residue; d: D form. pGlu = O=C1CC[C@@H](C(=O)O)N1

What was measured:
[1] = tested on: ovulation in mature Sprague-Dawley rats; conditions: same rat ovulation test; absence of or significant decrease in number of ova is the criterion
Method: The test was conducted with mature Sprague-Dawley rats, normally cycling, unanesthetized, proestrous rats. On the afternoon of proestrous, each rat in the test group received six subcutaneous injections of the acetate salt of formula I in corn oil, each injection being given a half hour following the previous injection. The rats are sacrificed the next morning and the number of animals ovulating and the number of ova shed are recorded following the procedure described by E. S. France, Neuroendocrinology 6, pp 77-89 (1970). The absence of or a significant decrease in the number of ova is the criterion for an anti-ovulation effect.

ovulation = conditions: as described in Ser. No. 402,958, now U.S. Pat. No. 3,855,199; cited from earlier work

Molecule | antiovulatory activity (result in words) [1] | anti-ovulatory activity (result in words) (ovulation)
CCNC(=O)[C@@H]1CCCN1C(=O)[C@H](CCCNC(=N)N)NC(=O)[C@H](CC(C)C)NC(=O)[C@@H](C)NC(=O)[C@H](Cc1ccc(O)cc1)NC(=O)[C@H](CO)NC(=O)[C@H](Cc1c[nH]c2ccccc12)NC(=O)[C@@H](Cc1ccccc1)NC(=O)[C@@H]1CCC(=O)N1 [p-Glu-D-Phe-Trp-Ser-Tyr-D-Ala-Leu-Arg-Pro-NHEt] ([pGlu][dF]WSY[dA]LRP-NHEt) | devoid of antiovulatory activity | –
[D-Phe^2 -D-Ala^6 ]-LRF | – | having anti-ovulatory activity
